In patent US12473583B2, “Use of guar gum, fluorescence-enhanced gold nanocluster, method for detecting alpha-glucosidase, and method for screening alpha-glucosidase inhibitor” (priority 2022, dated 2025) one finds IC50 data, which are given here for 1 molecule.

The assay concerns the target α-glucosidase (α-Glu). As to the kind of experiment: Screening of α-Glu inhibitors by fluorescence detection with guar gum-gold nanocluster-Fe3+ mixed dispersion (AAG substrate). The class given is biochemical. The conditions noted are these: read from calibration curve of inhibitory efficiency vs concentration; third incubation 37° C. for 40 min, PBS pH=7.0, AAG substrate; fluorescence at 610 nm; read-out: IC50 (concentration of the inhibitor required to inhibit 50% α-Glu activity).

Molecules are shown by their SMILES.

Excerpt: The present disclosure further provides a method for screening an α-Glu inhibitor, including the following steps: • providing a fluorescence-enhanced gold nanocluster-Fe^3+ mixed dispersion, where a fluorescence-enhanced gold nanocluster in the fluorescence-enhanced gold nanocluster-Fe^3+ mixed dispersion is the fluorescence-enhanced gold nanocluster in the above technical solution; • mixing an α-Glu inhibitor solution to be tested, an α-Glu solution, an AAG solution, and a PBS, and conducting third incubation to obtain a third incubation solution; • mixing the third incubation solution with the fluorescence-enhanced gold nanocluster-Fe^3+ mixed dispersion, and conducting fourth incubation to obtain a fourth incubation solution; and • subjecting the fourth incubation solution to fluorescence detection, and plotting a calibration curve of the α-Glu inhibitor to be tested according to a fluorescence emission intensity obtained by the fluorescence detection; according to the calibration curve of the α-Glu inhibitor to be tested, obtaining an IC50 of the α-Glu inhibitor to be tested to screen the α-Glu inhibitor. […]
In the present disclosure, the third incubation solution is mixed with the fluorescence-enhanced gold nanocluster-Fe^3+ mixed dispersion, and the fourth incubation is conducted to obtain the fourth incubation solution. […]

As for `COc1ccc([C@@H]2CC(=O)c3c(O)cc(O[C@@H]4O[C@H](CO[C@@H]5O[C@@H](C)[C@H](O)[C@@H](O)[C@H]5O)[C@@H](O)[C@H](O)[C@H]4O)cc3O2)cc1O` [hesperidin], the IC50 was determined as 101 µM.
